Patent publication US20230024442A1, “BIFUNCTIONAL COMPOUNDS FOR GRADING BTK VIA UBIQUITIN PROTEOSOME PATHWAY” (NURIX THERAPEUTICS, INC., priority 2019, published 2023)

Target: T1, BTK (Homo sapiens, UniProt Q06187)
T1 construct: endogenous in cells; host or cells: Ramos (ATCC CRL-1596)
Test: Cellular BTK HTRF Assay (BTK levels in Ramos cells)
Format: cell-based
Details: Ramos cells, 50,000 cells, incubated four hours at 37° C.; BTK levels by Cisbio Total-BTK HTRF relative to DMSO-treated cells
Protocol: Ramos (CRL-1596) cells were obtained from American Type Culture Collection and were grown in RPMI-1640 media (ATCC, 30-2001) supplemented with 10% heat-inactivated FBS (Corning Premium Fetal Bovine Serum from Fisher, MT35015CV).
Compounds of the present invention were added to 50,000 Ramos cells in round-bottom 96 well plates with a final DMSO concentration of […] and were incubated at 37° C. 5% CO2 for four hours. BTK levels were determined using Cisbio Total-BTK HTRF ([…] Time-Resolved Fluorescence) kit (63ADK064PEG) according to manufacturer's protocol. Briefly, cells were incubated in 1× supplied lysis buffer for 30 minutes. In an opaque white low volume 96 well plate (Cisbio, 66PL96005), cell lysate was combined with two different specific BTK antibodies, one conjugated with Eu^3+-Cryptate FRET donor and one conjugated with d2 FRET acceptor. Assay controls include wells containing cell lysate with only the Eu^3+-Cryptate FRET donor antibody and wells containing both HTRF antibodies and lysis buffer without cells or control lysate provided by Cisbio. HTRF ratio was calculated as (acceptor signal at 665 nm/donor signal at 620 nm)×10^4. Background HTRF levels were determined from the control well containing the donor, but no acceptor, antibody. Background HTRF levels were subtracted from all samples. Readouts were reported as HTRF levels relative to HTRF levels of DMSO-treated cells. Four-parameter non-linear regressions were performed in GraphPad Prism 7.02 to obtain DC50 values. DC50 values are provided in Table 7, wherein A<1 nM, 1 nM≤B≤10 nM, and 10 nM<C<1 μM.

T1 sequence (Q06187 whole entry): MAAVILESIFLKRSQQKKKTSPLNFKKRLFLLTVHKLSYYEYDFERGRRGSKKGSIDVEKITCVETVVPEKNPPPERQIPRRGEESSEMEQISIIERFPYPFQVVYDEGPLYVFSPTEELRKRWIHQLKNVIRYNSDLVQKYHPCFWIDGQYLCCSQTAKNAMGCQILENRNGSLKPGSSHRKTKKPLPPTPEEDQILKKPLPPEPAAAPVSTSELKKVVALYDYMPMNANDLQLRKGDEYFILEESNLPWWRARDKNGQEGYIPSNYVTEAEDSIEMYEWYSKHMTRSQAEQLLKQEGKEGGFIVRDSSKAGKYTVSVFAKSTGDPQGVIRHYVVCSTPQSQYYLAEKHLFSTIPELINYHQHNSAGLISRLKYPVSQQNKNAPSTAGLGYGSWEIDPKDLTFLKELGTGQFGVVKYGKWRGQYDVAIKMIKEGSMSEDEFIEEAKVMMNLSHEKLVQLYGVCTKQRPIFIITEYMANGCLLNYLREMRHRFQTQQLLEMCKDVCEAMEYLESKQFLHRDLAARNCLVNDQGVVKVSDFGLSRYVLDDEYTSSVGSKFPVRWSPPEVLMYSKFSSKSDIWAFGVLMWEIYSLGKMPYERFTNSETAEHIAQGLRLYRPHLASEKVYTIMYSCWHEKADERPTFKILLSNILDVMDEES

Row | Compound | DC50
1 | C[C@H]1CN(C(=O)CCOCCC(=O)Nc2cccc3c2CN(C2CCC(=O)NC2=O)C3=O)CCN1c1ccc(Nc2cc(-c3ccnc(N4CCn5c(cc6c5CC(C)(C)C6)C4=O)c3CO)cn(C)c2=O)nc1 (some centres unmarked) [Compound 57] | 0.001 to 0.01 µM
2 | C[C@H]1CN(C(=O)CCOCCN2CCN(CCOCCOCCNc3cccc4c3C(=O)N(C3CCC(=O)NC3=O)C4=O)CC2)CCN1c1ccc(Nc2cc(-c3ccnc(N4CCn5c(cc6c5CC(C)(C)C6)C4=O)c3CO)cn(C)c2=O)nc1 (some centres unmarked) [Compound 42] | 0.01 to 1 µM
3 | Cn1cc(-c2ccnc(-n3ncc4cc(C(C)(C)C)cc(F)c4c3=O)c2CO)cc(Nc2cc3n(n2)CCN(C(=O)CNc2cccc4c2C(=O)N(C2CCC(=O)NC2=O)C4=O)C3)c1=O (centres unmarked) [Compound 12] | 0.001 to 0.01 µM
4 | Cn1cc(-c2ccnc(-n3ncc4cc(C(C)(C)C)cc(F)c4c3=O)c2CO)cc(Nc2cc3n(n2)CCN(C(=O)CCCc2cccc4c2CN(C2CCC(=O)NC2=O)C4=O)C3)c1=O (centres unmarked) [Compound 13] | 0.01 to 1 µM
5 | Cn1cc(-c2ccnc(-n3ncc4cc(C(C)(C)C)cc(F)c4c3=O)c2CO)cc(Nc2cc3n(n2)CCN(C(=O)[C@H]2C[C@@H](OCCCc4cccc5c4CN(C4CCC(=O)NC4=O)C5=O)C2)C3)c1=O (some centres unmarked) [Compound 17] | 0.01 to 1 µM
6 | C[C@@H]1CN(C(=O)NCCCCCc2cccc3c2CN(C2CCC(=O)NC2=O)C3=O)CCN1c1ccc(Nc2cc(-c3ccnc(N4CCn5c(cc6c5CC(C)(C)C6)C4=O)c3CO)cn(C)c2=O)nc1 (some centres unmarked) [Compound 46] | 0.001 to 0.01 µM
7 | Cn1cc(-c2ccnc(-n3ncc4cc(C(C)(C)C)cc(F)c4c3=O)c2CO)cc(Nc2cc3n(n2)CCN(C(=O)CCOCCNc2cccc4c2C(=O)N(C2CCC(=O)NC2=O)C4=O)C3)c1=O (centres unmarked) [Compound 1] | 0.001 to 0.01 µM
8 | C[C@@H]1CN(C(=O)N(C)CCOCCOCCOCCOCCCc2cccc3c2CN(C2CCC(=O)NC2=O)C3=O)CCN1c1ccc(Nc2cc(-c3ccnc(N4CCn5c(cc6c5CC(C)(C)C6)C4=O)c3CO)cn(C)c2=O)nc1 (some centres unmarked) [Compound 44] | 0.001 to 0.01 µM
9 | C[C@H]1CN(C(=O)CCOCCCc2cccc3c2C(=O)N(C2CCC(=O)NC2=O)C3=O)CCN1c1ccc(Nc2cc(-c3ccnc(N4CCn5c(cc6c5CC(C)(C)C6)C4=O)c3CO)cn(C)c2=O)nc1 (some centres unmarked) [Compound 28] | 0.001 to 0.01 µM
10 | C[C@H]1CN(C(=O)CN2CCN(CCc3cccc4c3CN(C3CCC(=O)NC3=O)C4=O)CC2)CCN1c1ccc(Nc2cc(-c3ccnc(N4CCn5c(cc6c5CC(C)(C)C6)C4=O)c3CO)cn(C)c2=O)nc1 (some centres unmarked) [Compound 26] | 0.001 to 0.01 µM
11 | C[C@H]1CN(C(=O)CCOCCOCCOCCOCCNc2cccc3c2C(=O)N(C2CCC(=O)NC2=O)C3=O)CCN1c1ccc(Nc2cc(-c3ccnc(N4CCn5c(cc6c5CC(C)(C)C6)C4=O)c3CO)cn(C)c2=O)nc1 (some centres unmarked) [Compound 51] | 0.001 to 0.01 µM
12 | Cn1cc(-c2ccnc(-n3ncc4cc(C(C)(C)C)cc(F)c4c3=O)c2CO)cc(Nc2cc3n(n2)CCN(C(=O)CCCCc2cccc4c2CN(C2CCC(=O)NC2=O)C4=O)C3)c1=O (centres unmarked) [Compound 11] | 0.001 to 0.01 µM
13 | CN[C@@H](C)C(=O)N[C@H](C(=O)N1C[C@@H](NC(=O)CCOCCOCCOCCC(=O)N2CCn3nc(Nc4cc(-c5ccnc(-n6ncc7cc(C(C)(C)C)cc(F)c7c6=O)c5CO)cn(C)c4=O)cc3C2)C[C@H]1C(=O)N[C@@H]1CCCc2ccccc21)C1CCCCC1 [Compound 5, (2S,4S)-4-(3-(2-(2-(3-(2-((2′-(6-(tert-butyl)-8-fluoro-1-oxophthalazin-2(1H)-yl)-3′-(hydroxymethyl)-1-methyl-6-oxo-1,6-dihydro-[3,4′-bipyridin]-5-yl)amino)-6,7-dihydropyrazolo[1,5-a]pyrazin-5(4H)-yl)-3-oxopropoxy)ethoxy)ethoxy)propanamido)-1-((S)-2-cyclohexyl-2-((S)-2-(methylamino)propanamido)acetyl)—N—((R)-1,2,3,4-tetrahydronaphthalen-1-yl)pyrrolidine-2-carboxamide] | 0.01 to 1 µM
14 | C[C@H]1CN(C(=O)C2CC3(CC(Nc4cccc5c4C(=O)N(C4CCC(=O)NC4=O)C5=O)C3)C2)CCN1c1ccc(Nc2cc(-c3ccnc(N4CCn5c(cc6c5CC(C)(C)C6)C4=O)c3CO)cn(C)c2=O)nc1 (some centres unmarked) [Compound 34] | 0.001 to 0.01 µM
15 | C[C@H]1CN(C(=O)[C@H]2C[C@H](OCCCc3cccc4c3CN(C3CCC(=O)NC3=O)C4=O)C2)CCN1c1ccc(Nc2cc(-c3ccnc(N4CCn5c(cc6c5CC(C)(C)C6)C4=O)c3CO)cn(C)c2=O)nc1 (some centres unmarked) [Compound 29] | 0.001 to 0.01 µM
16 | C[C@@H]1CN(CCOCCNc2cccc3c2C(=O)N(C2CCC(=O)NC2=O)C3=O)CCN1c1ccc(Nc2cc(-c3ccnc(N4CCn5c(cc6c5CC(C)(C)C6)C4=O)c3CO)cn(C)c2=O)nc1 (some centres unmarked) [Compound 40] | < 0.001 µM
17 | CN[C@@H](C)C(=O)N[C@H](C(=O)N1CCC[C@H]1c1nc(C(=O)c2cccc(OCCOCCOCCOCCC(=O)N3CCn4nc(Nc5cc(-c6ccnc(-n7ncc8cc(C(C)(C)C)cc(F)c8c7=O)c6CO)cn(C)c5=O)cc4C3)c2)cs1)C1CCCCC1 (stereo in doubt) [Compound 7, (S)—N—((S)-2-((S)-2-(4-(3-(2-(2-(2-(3-(2-((2′-(6-(tert-butyl)-8-fluoro-1-oxophthalazin-2(1H)-yl)-3′-(hydroxymethyl)-1-methyl-6-oxo-1,6-dihydro-[3,4′-bipyridin]-5-yl)amino)-6,7-dihydropyrazolo[1,5-a]pyrazin-5(4H)-yl)-3-oxopropoxy)ethoxy)ethoxy)ethoxy)benzoyl)thiazol-2-yl)pyrrolidin-1-yl)-1-cyclohexyl-2-oxoethyl)-2-(methylamino)propanamide] | 0.01 to 1 µM
18 | C[C@H]1CN(C(=O)N(C)CCOCCOCCOCCOCCOCCCc2cccc3c2CN(C2CCC(=O)NC2=O)C3=O)CCN1c1ccc(Nc2cc(-c3ccnc(N4CCn5c(cc6c5CC(C)(C)C6)C4=O)c3CO)cn(C)c2=O)nc1 (some centres unmarked) [Compound 45] | 0.001 to 0.01 µM

The remaining lines, values ahead:

Row | DC50 | Compound
19 | 0.001 to 0.01 µM | C[C@H]1CN(C(=O)NCCOCCOCCOCCCc2cccc3c2CN(C2CCC(=O)NC2=O)C3=O)CCN1c1ccc(Nc2cc(-c3ccnc(N4CCn5c(cc6c5CC(C)(C)C6)C4=O)c3CO)cn(C)c2=O)nc1 (some centres unmarked) [Compound 47]
20 | 0.001 to 0.01 µM | C[C@H]1CN(C(=O)CCCNc2cccc3c2C(=O)N(C2CCC(=O)NC2=O)C3=O)CCN1c1ccc(Nc2cc(-c3ccnc(N4CCn5c(cc6c5CC(C)(C)C6)C4=O)c3CO)cn(C)c2=O)nc1 (some centres unmarked) [Compound 37]
21 | 0.01 to 1 µM | C[C@H]1CN(C(=O)CN2CCN(Cc3cccc4c3CN(C3CCC(=O)NC3=O)C4=O)CC2)CCN1c1ccc(Nc2cc(-c3ccnc(N4CCn5c(cc6c5CC(C)(C)C6)C4=O)c3CO)cn(C)c2=O)nc1 (some centres unmarked) [Compound 27]
22 | 0.001 to 0.01 µM | C[C@H]1CN(C(=O)CCCCc2cccc3c2CN(C2CCC(=O)NC2=O)C3=O)CCN1c1ccc(Nc2cc(-c3ccnc(N4CCn5c(cc6c5CC(C)(C)C6)C4=O)c3CO)cn(C)c2=O)nc1 (some centres unmarked) [Compound 38]
23 | 0.001 to 0.01 µM | C[C@H]1CN(C(=O)CCOCCNc2cccc3c2C(=O)N(C2CCC(=O)NC2=O)C3=O)CCN1c1ccc(Nc2cc(-c3ccnc(N4CCn5c(cc6c5CC(C)(C)C6)C4=O)c3CO)cn(C)c2=O)nc1 (some centres unmarked) [Compound 55]
24 | 0.001 to 0.01 µM | C[C@H]1CN(C(=O)CCCc2cccc3c2CN(C2CCC(=O)NC2=O)C3=O)CCN1c1ccc(Nc2cc(-c3ccnc(N4CCn5c(cc6c5CC(C)(C)C6)C4=O)c3CO)cn(C)c2=O)nc1 (some centres unmarked) [Compound 33]
25 | 0.01 to 1 µM | Cn1cc(-c2ccnc(-n3ncc4cc(C(C)(C)C)cc(F)c4c3=O)c2CO)cc(Nc2cc3n(n2)CCN(C(=O)CN2CCN(CCc4cccc5c4CN(C4CCC(=O)NC4=O)C5=O)CC2)C3)c1=O (centres unmarked) [Compound 22]
26 | 0.001 to 0.01 µM | Cn1cc(-c2ccnc(-n3ncc4cc(C(C)(C)C)cc(F)c4c3=O)c2CO)cc(Nc2cc3n(n2)CCN(C(=O)CCOCCOCCOCCNc2cccc4c2C(=O)N(C2CCC(=O)NC2=O)C4=O)C3)c1=O (centres unmarked) [Compound 3]
